# Laboratory results taken from article PMC9961948, “Interaction of Amphipathic Peptide from Influenza Virus M1 Protein with Mitochondrial Cytochrome Oxidase” (International Journal of Molecular Sciences, 2023).
# Molecular target: T1, cytochrome c oxidase (CcO) purified from heart mitochondria (Bos taurus, UniProt P00396+P07471+P68530)
# T1 construct: Cytochrome c oxidase was purified from the heart mitochondria of Bos taurus; from tissue; host or cells: bovine heart mitochondria
# Test: Cytochrome oxidase activity of solubilized mitochondrial CcO (oxygen uptake)
# Assay type: biochemical
# Conditions: solubilized bovine heart CcO 20 nM; oxygen uptake, Clark electrode, 25 °C; BM 50 mM Hepes/Tris pH 7.6, 50 mM KCl, 1 mM (0.05%) DM; 5 mM ascorbate, 0.1 mM TMPD, 10 μM cytochrome c; fit by Equation (1); read-out: Inhibition of CcO, Solubilized, Ki(app)
substance,measurement,value
Ac-STKLWEMLVELGNMDKAVKLWRKLSR-NH2 [A4],Ki,0.0223 mM
